Test results: PubChem BioAssay (NCI)
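Five concentrations, 48 hours, 96-well plates. Abbreviation: GI50, concentration required for 50% inhibition of growth. TGI: concentration producing complete growth inhibition.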 *1 amine or outer side, *2 acyl side, *3 side chain or, on linkers, in order; H or OH if unused. Where a SMILES comes first, the peptide text is derived from it. Bridges are numbered along the chain shown (N, C = ends). Roman numbers before positions name the chains, in order. [ ]: non-standard residue; d: D form. Actinocin(9to1) = Cc1c2oc3c(C)ccc(C(=O)[*:1])c3nc-2c(C(=O)[*:2])c(N)c1=O; NMeV = CN[CH](C(=O)O)C(C)C; Sar = CNCC(=O)O

Legend:
Assay in all cases: NCI tumour cell line growth inhibition, 48 h
[1] = test system: 786-0 renal
[2] = test system: IGROV1 ovarian
[3] = test system: MOLT-4 leukemia
[4] = test system: MCF7 breast
[5] = test system: CCRF-CEM leukemia
[6] = test system: SF-295 CNS
[7] = test system: U251 CNS
[8] = test system: SR leukemia
[9] = test system: NCI/ADR-RES ovarian
[10] = test system: CAKI-1 renal
[11] = test system: RXF 393 renal

Compound | TGI [1] | TGI [2] | TGI [3] | TGI [4] | GI50 [5] | TGI [5] | TGI [6] | TGI [7] | TGI [8] | TGI [9] | TGI [10] | TGI [11] | GI50 [10] | GI50 [3] | GI50 [6] | GI50 [7] | GI50 [11]
COc1ccc2c3c([nH]c2c1)-c1nc2ccccc2c(=O)n1CC3 | > 25 µM | > 25 µM | > 25 µM | > 25 µM | > 25 µM | > 25 µM | > 25 µM | > 25 µM | > 25 µM | > 25 µM |  |  |  |  |  |  | 
Cc1cccc(=O)c([O-])c1.Cc1cccc(=O)c([O-])c1.Cc1cccc(=O)c([O-])c1.Cc1cccc(=O)c([O-])c1.[Th+4] | > 78.5 µM | > 100 µM | > 27 µM |  | 2.52 µM | 49.7 µM | > 100 µM | > 100 µM | > 100 µM |  | 86.6 µM | > 100 µM |  |  |  |  | 
COc1ccccc1NC(=O)CSC(N)=O | 36.6 µM | > 100 µM |  |  |  | > 100 µM | > 100 µM | 66.2 µM | > 100 µM |  | > 100 µM |  |  |  |  |  | 
O=C1c2ccccc2C2(c3ccc(Cl)cc3)N[C@@H]3CCCC[C@@H]3N12 (stereo partly specified) | > 100 µM | > 100 µM | > 100 µM | > 100 µM |  | > 100 µM | > 100 µM | > 100 µM | > 100 µM |  | > 100 µM | > 100 µM |  |  |  |  | 
S=c1oc(CCCCCCCCc2nn(CNc3ccc(Cl)cc3)c(=S)o2)nn1CNc1ccc(Cl)cc1 | > 100 µM | > 100 µM | > 100 µM | > 100 µM |  |  | > 100 µM | > 100 µM |  | > 100 µM | > 100 µM | > 100 µM |  |  |  |  | 
C/C(=C\COP(=O)(O)OP(=O)(O)O)CC/C=C(\C)CNc1ccccc1 | > 50 µM | > 50 µM | > 50 µM | > 50 µM |  | 10.3 µM | > 50 µM | > 50 µM |  | > 50 µM | > 50 µM | > 50 µM |  |  |  |  | 
COC(C/C=C\C=C\CC/C=C/CC(C)/C=C/C(=C\C(=O)O)CC(=O)O)/C(C)=C\C=C(/C)C(=O)O (stereo unspecified) |  | > 100 µM | > 100 µM |  |  | > 100 µM | > 100 µM | > 100 µM | > 100 µM |  | > 100 µM |  |  |  |  |  | 
CCCCCCCCCCC[N+]1(Cc2ccccc2)CC2CCN(Cc3ccccc3)CC2C1 (stereo unspecified) | 2.21 µM | 1.78 µM | 1.25 µM | 1.62 µM |  | 1.14 µM | 2.28 µM | 1.11 µM | 1.07 µM |  | 2.74 µM | 1.95 µM |  |  |  |  | 
CCn1c(O)c(C(=O)NC(C)c2ccc([N+](=O)[O-])cc2)c(=O)n(CC)c1=S (stereo unspecified) | 11.7 µM | 11.4 µM | 5.52 µM | 9.19 µM |  | 11.9 µM | 3.7 µM | 13.1 µM |  |  | 10.1 µM | 12 µM |  |  |  |  | 
O=C(O)c1cc(Nc2c(O)c3c(c(O)c2Cl)C(=O)C=CC3=O)ccc1O | > 10 µM | > 10 µM | > 10 µM | > 10 µM |  | > 10 µM | > 10 µM | > 10 µM |  | > 10 µM | > 10 µM |  |  |  |  |  | 
Cn1c(=O)[nH]n(-c2ccc3ccccc3c2)c1=O | > 100 µM | > 100 µM |  | > 100 µM |  | > 100 µM | > 100 µM | > 100 µM |  | > 100 µM | > 100 µM | > 100 µM |  |  |  |  | 
C/C=C\C(CC(=O)NCCc1c[nH]c2ccccc12)CC(=O)OC (stereo unspecified) | > 100 µM | > 100 µM | > 100 µM | > 100 µM |  |  | > 100 µM | > 100 µM |  | > 100 µM | > 100 µM | > 100 µM |  |  |  |  | 
COc1ccc(C2C3=CONC3CC3CCCCC32)cc1 (stereo unspecified) | > 100 µM | > 100 µM | > 100 µM | > 100 µM |  | > 100 µM |  | > 100 µM | > 100 µM |  | > 100 µM |  |  |  |  |  | 
O=C(NCCNCCO)N/N=C/c1ccccc1 | > 100 µM | > 100 µM | > 100 µM |  |  | > 100 µM | > 100 µM | > 100 µM |  |  |  | > 100 µM |  |  |  |  | 
Cc1c(Cl)c(=O)oc2cc(OCC(O)COC(C)C)ccc12 (stereo unspecified) | > 100 µM | > 100 µM | 66.9 µM | 65.3 µM |  | > 100 µM | > 100 µM | > 100 µM | 73.2 µM | > 100 µM |  |  |  |  |  |  | 
Nc1cc2ncnc(Nc3cccc(Br)c3)c2cn1 | > 100 µM |  | > 100 µM |  |  | > 100 µM | 71.8 µM | > 100 µM | > 100 µM | > 100 µM | > 100 µM | > 100 µM |  |  |  |  | 

Compound | TGI [1] | TGI [2] | TGI [3] | TGI [4] | GI50 [5] | TGI [5] | TGI [6] | TGI [7] | TGI [8] | TGI [9] | TGI [10] | TGI [11] | GI50 [10] | GI50 [3] | GI50 [6] | GI50 [7] | GI50 [11]
Cn1c(O)c(/C=N/c2ncccn2)c(=O)[nH]c1=O | > 100 µM | > 100 µM | > 100 µM | > 100 µM |  |  | > 100 µM | > 100 µM |  | > 100 µM | > 100 µM |  |  |  |  |  | 
CCCCNC(=S)Nc1nc(C(=O)NNC(=S)NCc2ccccc2)cs1 | > 100 µM | > 100 µM | > 100 µM | > 100 µM |  |  | > 100 µM | > 100 µM | 27.5 µM | > 100 µM | 90.1 µM |  |  |  |  |  | 
C=C1C(=O)O[C@H]2[C@H]1CC/C(COC(=O)/C=C/C(=O)OC/C1=C/CC[C@@]3(C)O[C@H]3[C@H]3OC(=O)C(=C)[C@@H]3CC1)=C\CC[C@@]1(C)O[C@@H]21 |  |  | 1.4 µM |  |  |  | > 100 µM | 10.8 µM |  |  | 3.43 µM | 0.713 µM | 1.08 µM | 0.307 µM | 6.77 µM | 2.82 µM | 0.297 µM
COc1cccc(OC/C(N=Cc2ccncc2)=N/NC(=O)c2ccncc2)c1 | > 100 µM | > 100 µM | > 100 µM | > 100 µM |  | > 100 µM | > 100 µM | > 100 µM |  | > 100 µM | > 100 µM | > 100 µM |  |  |  |  | 
CCOc1ccccc1N=NC1C(=O)N(C(=O)CC(=O)Nc2ccccc2OC)N=C1C (stereo unspecified) | > 100 µM | > 100 µM | > 100 µM | > 100 µM |  | > 100 µM | 55.6 µM | 95.6 µM |  | > 100 µM | > 100 µM | 81.5 µM |  |  |  |  | 
c1ccc2c(c1)ccc1nc(-c3ccc4c(c3)OCO4)c3c(c12)CCC3 | > 100 µM |  | > 100 µM | > 100 µM |  | > 100 µM | > 100 µM | > 100 µM |  | > 100 µM | > 100 µM |  |  |  |  |  | 
Cc1ccc(S(=O)(=O)CC2CCCn3c2c(C#N)c2ccccc23)cc1 (stereo unspecified) | > 100 µM | > 100 µM | > 100 µM | > 100 µM |  | > 100 µM | > 100 µM | > 100 µM |  | > 100 µM | > 100 µM | > 100 µM |  |  |  |  | 
Cc1ccc(Cl)c2c(=O)cc(-c3ccccc3)[nH]c12 | > 100 µM | > 100 µM | > 100 µM |  |  | > 100 µM | > 100 µM | > 100 µM | > 100 µM |  | > 100 µM | > 100 µM |  |  |  |  | 
Oc1ccc(O)c(Sc2nnc(CCCCCCCCc3nnc(Sc4cc(O)ccc4O)o3)o2)c1 | 35.7 µM | > 100 µM | > 100 µM | 94.1 µM |  |  | > 100 µM | > 100 µM |  | > 100 µM | 69.7 µM |  |  |  |  |  | 
Cc1c2oc3c(C)ccc(C(=O)NC4C(=O)NC(Cc5ccc(O)cc5)C(=O)N5CCCC5C(=O)N(C)CC(=O)N(C)C(C(C)C)C(=O)OC4C)c3nc-2c(C(=O)NC2C(=O)NC(Cc3ccc(O)cc3)C(=O)N3CCCC3C(=O)N(C)CC(=O)N(C)C(C(C)C)C(=O)OC2C)c(N)c1=O (stereo unspecified) (I: TYP[Sar][NMeV] / II: TYP[Sar][NMeV]; ester I:1-I:C, II:1-II:C; linker I:N-II:N via Actinocin(9to1); configuration not given here) | > 74.9 µM | 32.6 µM |  | 14.6 µM |  |  | > 54.6 µM | > 48.7 µM |  | > 100 µM | 27.5 µM | > 57.3 µM |  |  |  |  | 
COc1ccc(C[C@H]2COC(=O)[C@@H]2Cc2ccccc2)cc1OC | > 100 µM | > 100 µM | > 100 µM | > 100 µM |  | > 100 µM | > 100 µM | > 100 µM | > 100 µM | > 100 µM |  |  |  |  |  |  | 
OCC1c2ccccc2-n2nc(-c3ccccc3)c(O)c21 (stereo unspecified) | 32.1 µM | > 100 µM | > 100 µM | 36.7 µM |  | > 100 µM | > 100 µM | 52.8 µM |  | 51.1 µM | 31.7 µM | 31.9 µM |  |  |  |  | 
O=c1oc2ccccc2c(O)c1C(c1ccc(O)cc1)c1c(O)c2ccccc2oc1=O | > 100 µM | > 100 µM |  |  |  | > 100 µM |  | > 100 µM |  | > 100 µM | > 100 µM |  |  |  |  |  | 
O=C1/C(=C/C=C/c2ccccc2)CCC1CNc1ccc(Br)cc1 (stereo unspecified) | > 100 µM | > 100 µM | > 100 µM | > 100 µM |  | > 100 µM | > 100 µM | > 100 µM | > 100 µM |  | > 100 µM | > 100 µM |  |  |  |  | 
CC(=O)NCC1OC2COC(c3ccccc3)OC2C2N=C(c3ccccc3)OC12 (stereo unspecified) | > 100 µM |  | > 100 µM | > 100 µM |  | > 100 µM | > 100 µM | > 100 µM |  | > 100 µM | > 100 µM | > 100 µM |  |  |  |  | 
Clc1ccc(Cc2nc3ccccc3nc2-c2cccc(Cl)c2)cc1 | 3.63 µM | 3.66 µM | 6.82 µM | 13 µM |  | 0.174 µM | 32.6 µM | 16.7 µM |  | 8.96 µM | 8.51 µM | 4.66 µM |  |  |  |  | 
